pIC50: −log10 of the molar value. Where a name gives a salt, the structure may show the parent alone.
Legend:
Cat L = Cat L (UniProt P07711); experiment: Cathepsin enzyme inhibition assay (fluorogenic peptide substrate Z-Val-Val-Arg-AMC), Cathepsin L; format: biochemical, human and mouse; settings: enzyme 1 nM, substrate 20 μM, pH 6.5; read-out: CatL IC50
Procedure: Cathepsin Enzyme Inhibition Assay
Enzyme activity is measured by observing the increase in fluorescence intensity caused by cleavage of a peptide substrate containing a fluorophore whose emission is quenched in the intact peptide.
Assay buffer: 100 mM potassium phosphate pH 6.5, EDTA-Na 5 mM, Triton X-100 0.001%, DDT 5 mM.
Enzymes (all at 1 nM): human and mouse Cathepsin S, Cat K, Cat B, Cat L Substrate (20 μM): Z-Val-Val-Arg-AMC, except for Cat K which uses Z-Leu-Arg-AMC (both from Bachem).
AMC=7-Amino-4-Methyl-Coumarin.
Excitation 360 nm, Emission 465 nm.
Enzyme is added to the substance dilutions in 96-well microtitre plates and the reaction is started with substrate. Fluorescence emission is measured over 20 minutes, during which time a linear increase is observed in the absence of inhibitor. IC50 are calculated by standard methods. The results are expressed in μM in the following table.

Cathepsin S = Cathepsin S (UniProt P25774); experiment: Cathepsin enzyme inhibition assay (fluorogenic peptide substrate Z-Val-Val-Arg-AMC), Cathepsin S; format: biochemical, human and mouse; settings: enzyme 1 nM, substrate 20 μM, pH 6.5; read-out: CatS IC50
Procedure, shortened: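 Compounds were combined with 1 nM human or mouse enzyme, and substrate then started the reaction. The buffer was potassium phosphate (100 mM, pH 6.5) containing EDTA-Na 5 mM, Triton X-100 0.001% and […] 5 mM.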

Row | Compound | pIC50 (Cat L) | pIC50 (Cathepsin S)
1 | N#CC1(NC(=O)[C@@H]2C[C@@H](S(=O)(=O)c3ccccc3C(F)(F)F)CN2Cc2ccncc2)CC1 [Example 108, (2S,4R)-1-Pyridin-4-ylmethyl-4-(2-trifluoromethyl-benzenesulfonyl)-pyrrolidine-2-carboxylic Acid (1-cyano-cyclopropyl)-amide] | 4.32 | 8.24
2 | CC1(C(=O)N2C[C@H](S(=O)(=O)c3ccccc3C(F)(F)F)C[C@H]2C(=O)NC2(C#N)CC2)CC1 [Example 207, (2S,4R)-1-(1-Methyl-cyclopropanecarbonyl)-4-(2-trifluoromethyl-benzenesulfonyl)-pyrrolidine-2-carboxylic acid (1-cyano-cyclopropyl)-amide] | ≤ 4.60 | 9.52
3 | N#CC1(NC(=O)[C@@H]2C[C@@H](S(=O)(=O)c3ccccc3Cl)CN2C(=O)C(F)(F)c2ccc(Cl)c(Cl)c2)CC1 [Example 437, (2S,4R)-4-(2-Chloro-benzenesulfonyl)-1-[2-(3,4-dichloro-phenyl)-2,2-difluoro-acetyl]-pyrrolidine-2-carboxylic acid (1-cyano-cyclopropyl)-amide] | 6.47 | 8.84
4 | N#CC1(NC(=O)[C@@H]2C[C@@H](S(=O)(=O)c3ccc(-n4cnc5ccccc54)cc3C(F)(F)F)CN2)CC1 [Example 22, (2S,4R)-4-(4-Benzoimidazol-1-yl-2-trifluoromethyl-benzenesulfonyl)-pyrrolidine-2-carboxylic Acid (1-cyano-cyclopropyl)-amide hydrochloride] | ≤ 4.60 | 9.30
5 | Cc1cc(N2C[C@H](S(=O)(=O)c3ccc(N4CCN(C)CC4)cc3Cl)C[C@H]2C(=O)NC2(C#N)CC2)n(C2CCC2)n1 [Example 401, (2S,4R)-4-[2-Chloro-4-(4-methyl-piperazin-1-yl)-benzenesulfonyl]-1-(2-cyclobutyl-5-methyl-2H-pyrazol-3-yl)-pyrrolidine-2-carboxylic acid (1-cyano-cyclopropyl)-amide] | 5.97 | 9.34
6 | Cn1nc(C(C)(C)C)cc1C(=O)N1C[C@H](S(=O)(=O)c2ccc(OCC(F)(F)F)cc2Cl)C[C@H]1C(=O)NC1(C#N)CC1 [Example 386, (2S,4R)-1-(5-tert-Butyl-2-methyl-2H-pyrazole-3-carbonyl)-4-[2-chloro-4-(2,2,2-trifluoro-ethoxy)-benzenesulfonyl]-pyrrolidine-2-carboxylic acid (1-cyano-cyclopropyl)-amide] | 5.40 | 8.76
7 | N#CC1(NC(=O)[C@@H]2C[C@@H](S(=O)(=O)c3ccc(N4CCC(C(F)(F)F)CC4)cc3Cl)CN2)CC1 [Example 154, (2S,4R)-4-[2-Chloro-4-(4-trifluoromethyl-piperidin-1-yl)-benzenesulfonyl]-pyrrolidine-2-carboxylic acid (1-cyano-cyclopropyl)-amide] | 5.18 | 8.74
8 | Cc1cc(N2C[C@H](S(C)(=O)=O)C[C@H]2C(=O)NC2(C#N)CC2)n(CCc2ccccc2)n1 [Example 448, (2S,4R)-4-Methanesulfonyl-1-(5-methyl-2-phenethyl-2H-pyrazol-3-yl)-pyrrolidine-2-carboxylic acid (1-cyano-cyclopropyl)-amide] | ≤ 4.60 | 5.08
9 | C[C@H](Oc1ccc(S(=O)(=O)[C@@H]2C[C@@H](C(=O)NC3(C#N)CC3)N(C(=O)C3(C)CC3)C2)c(Cl)c1)C(F)(F)F [Example 199, (2S,4R)-4-[2-Chloro-4-((S)-2,2,2-trifluoro-1-methyl-ethoxy)-benzenesulfonyl]-1-(1-methyl-cyclopropanecarbonyl)-pyrrolidine-2-carboxylic acid (1-cyano-cyclopropyl)-amide] | 5.11 | 9.30
10 | Cc1cc(N2C[C@H](S(=O)(=O)c3ccc(-n4cccn4)cc3Cl)C[C@H]2C(=O)NC2(C#N)CC2)n(C2CCOCC2)n1 [Example 490] | 5.36 | 9.03
11 | N#CC1(NC(=O)[C@@H]2C[C@@H](S(=O)(=O)c3ccc(OCC(F)(F)F)cc3Cl)CN2C(=O)C2(C(F)(F)F)CC2)CC1 [Example 172, (2S,4R)-4-[2-Chloro-4-(2,2,2-trifluoro-ethoxy)-benzenesulfonyl]-1-(1-trifluoromethyl-cyclopropanecarbonyl)-pyrrolidine-2-carboxylic acid (1-cyano-cyclopropyl)-amide] | 5.05 | 9.40
12 | N#CC1(NC(=O)C2CC(S(=O)(=O)c3ccccc3C(F)(F)F)CN2c2cccc3ccccc23)CC1 (stereo not drawn) [Example 345, 1-Naphthalen-1-yl-4-(2-trifluoromethyl-benzenesulfonyl)-pyrrolidine-2-carboxylic acid (1-cyano-cyclopropyl)-amide] | 4.15 | 9.04
13 | Cc1nccn1-c1ccc(S(=O)(=O)[C@H]2CN[C@H](C(=O)NC3(C#N)CC3)C2)c(C(F)(F)F)c1 [Example 24, (2S,4R)-4-[4-(2-M ethyl-imidazol-1-yl)-2-trifluoromethyl-benzenesulfonyl]-pyrrolidine-2-carboxylic acid (1-cyano-cyclopropyl)-amide hydrochloride] | ≤ 4.60 | 8.59
14 | CCC(=O)N1C[C@H](S(=O)(=O)c2ccccc2Cl)C[C@H]1C(=O)NCC#N [Example 61, (2S,4R)-4-(2-Chloro-benzenesulfonyl)-1-propionyl-pyrrolidine-2-carboxylic acid cyanomethyl-amide] | 4.65 | 8.92
15 | Cc1cc(N2C[C@H](S(=O)(=O)c3ccccc3C(F)(F)F)C[C@H]2C(=O)NC2(C#N)CC2)n(-c2cc[nH]c(=O)c2)n1 [Example 196, (2S,4R)-1-[5-Methyl-2-(2-oxo-1,2-dihydro-pyridin-4-yl)-2H-pyrazol-3-yl]-4-(2-trifluoromethyl-benzenesulfonyl)-pyrrolidine-2-carboxylic acid (1-cyano-cyclopropyl)-amide] | 4.38 | 9.52
16 | CC1(C(=O)N2C[C@H](S(=O)(=O)c3ccc(Br)cc3C(F)(F)F)C[C@H]2C(=O)NC2(C#N)CC2)CC1 [Example 270, (2S,4R)-4-(4-Bromo-2-trifluoromethyl-benzenesulfonyl)-1-(1-methyl-cyclopropanecarbonyl)-pyrrolidine-2-carboxylic acid (1-cyano-cyclopropyl)-amide] | ≤ 4.60 | 9.40
17 | CC(C)(C)OC(=O)N1C[C@H](S(=O)(=O)c2ccc(OCC(F)(F)F)cc2Cl)C[C@H]1C(=O)NC1(C#N)CC1 [Example 171, (2S,4R)-4-[2-Chloro-4-(2,2,2-trifluoro-ethoxy)-benzenesulfonyl]-2-(1-cyano-cyclopropylcarbamoyl)-pyrrolidine-1-carboxylic acid tert.-butyl ester] | ≤ 4.60 | 8.15
18 | N#CC1(NC(=O)[C@@H]2C[C@@H](S(=O)(=O)c3ccc(N4CCC(F)(F)C4)cc3C(F)(F)F)CN2)CC1 [Example 28, (2S,4R)-4-[4-(3,3-Difluoro-pyrrolidin-1-yl)-2-trifluoromethyl-benzenesulfonyl]-pyrrolidine-2-carboxylic acid (1-cyano-cyclopropyl)-amide hydrochloride] | ≤ 4.60 | 8.82

Source: patent US8163793B2, “Proline derivatives” (Hoffman-La Roche Inc., priority 2009, dated 2012)
